Experiments:
DEX-treated mice [1] = assay: Tail suspension test (TST), neonatal dexamethasone exposure model of depression; assay type: in vivo; conditions: juvenile DEX-treated mice, 10 mg/kg i.p. single injection
Procedure: (§1) A new animal model of depression was prepared by exposing mice neonatally to dexamethasone (hereinafter abbreviated as DEX). […] The mouse model was prepared and reported only recently by the inventors of the present application and their collaborators (Non Patent Literature 18). […] Further, alterations were found in levels of amino acids (glutamate, glutamine, glycine, D-serine, and L-serine) in mouse brains after the neonatal DEX exposure (Non Patent Literature 18). Those amino acids are known to be associated with NMDA receptor mediated neurotransmission. Thus, it is conceivable that alterations in glutamatergic transmission via the NMDA receptor after the neonatal DEX exposure may be involved in the depression-like behavior in the juvenile mice and the adult mice (Non Patent Literature 18).
(§2) The preparation of the animal model of depression and the administration of the agent were specifically performed as described below (FIG. 2A). Male and female ICR mice (9-week-old, Japan SLC, Inc., Hamamatsu, Japan) were used. The mice were given free access to water and feed. A breeding procedure consisted of housing three to four females with one male, for 14 days. On the final day of this period, the females were placed in isolation and checked daily around the expected delivery day. The day of birth was defined as day 0. The mice were injected intraperitoneally with DEX (Wako Pure Chemical Industries, Ltd., Tokyo, Japan) dissolved in saline on day 1, day 2, and day 3 at doses of 0.5 mg/kg body weight, 0.3 mg/kg body weight, and 0.1 mg/kg body weight, respectively. In addition, normal controls were injected with equal volumes (10 ml/kg) of saline.
(§3) The antidepressant effects of the agent were investigated for juvenile mice by behavioral tests such as the TST, the PST, the LMT, and a 1% sucrose preference test (SPT) (FIG. 2A). The TST and the PST were performed twice, i.e., the day (27 hours and 29 hours, respectively) and 7 days after the injection of ketamine, and the LMT and the SPT were performed on the day and 2 days after the injection of ketamine. The TST was performed as described below. First, the mice were taken out from cages, and then a small piece of an adhesive tape was bonded onto a portion approximately 2 cm away from the tip of the tail of the mice. […] The immobility time of each mouse was recorded for 10 minutes. […] The immobility time was calculated as a value obtained by subtracting active time from total time, using the analysis software of the apparatus. Cumulative immobility time was recorded over 6 minutes during a test period. […] The locomotor activity of the mice was counted with SCANET MV-40, and the cumulative exercise of the mice was recorded for 60 minutes. […]

DEX-treated mice [2] = assay: Forced swimming test (FST), neonatal dexamethasone exposure model of depression; assay type: in vivo; conditions: juvenile DEX-treated mice, 10 mg/kg i.p. single injection
Procedure: as §1, §2, §3

DEX-treated mice [3] = assay: Locomotion test (LMT), neonatal dexamethasone exposure model; assay type: in vivo; conditions: juvenile DEX-treated mice, 10 mg/kg i.p., day after injection
Procedure: A new animal model of depression was prepared by exposing mice neonatally to dexamethasone (hereinafter abbreviated as DEX). […] The mouse model was prepared and reported only recently by the inventors of the present application and their collaborators (Non Patent Literature 18). […] Further, alterations were found in levels of amino acids (glutamate, glutamine, glycine, D-serine, and L-serine) in mouse brains after the neonatal DEX exposure (Non Patent Literature 18). Those amino acids are known to be associated with NMDA receptor mediated neurotransmission. Thus, it is conceivable that alterations in glutamatergic transmission via the NMDA receptor after the neonatal DEX exposure may be involved in the depression-like behavior in the juvenile mice and the adult mice (Non Patent Literature 18). […]
The antidepressant effects of the agent were investigated for juvenile mice by behavioral tests such as the TST, the PST, the LMT, and a 1% sucrose preference test (SPT) (FIG. 2A). […] The immobility time of each mouse was recorded for 10 minutes. […] The immobility time was calculated as a value obtained by subtracting active time from total time, using the analysis software of the apparatus. Cumulative immobility time was recorded over 6 minutes during a test period. […] The locomotor activity of the mice was counted with SCANET MV-40, and the cumulative exercise of the mice was recorded for 60 minutes. […]

Control C57/B6 mice = assay: Locomotion-enhancing effect in control mice; assay type: in vivo
Procedure: An effect of ketamine on the locomotion of mice was tested using SCANET MV-40 ([…] Co., Ltd., Toyama, Japan). Specifically, the locomotion was measured for a total of 180 minutes, i.e., 60 minutes before injection to 120 minutes after injection, and calculated as a locomotion per 10 minutes. The statistical analysis of the results of the locomotion was performed by repeated one-way analysis of variance (repeated one-way ANOV A), followed by a least significant difference test (LSD test).

[4] = test system: dopamine release in the striatum; conditions: imaging studies in nonhuman primates; Hashimoto et al., 2017; cited from earlier work

Row | SMILES | immobility time in the TST (DEX-treated mice [1]; 27 hours after injection) | immobility time in the TST (DEX-treated mice [1]; 7 days after injection) | immobility time in the FST (DEX-treated mice [2]; 29 hours after injection) | immobility time in the FST (DEX-treated mice [2]; 7 days after injection) | locomotion in the LMT (DEX-treated mice [3]) | time after injection at which locomotion returned to a normal value (Control C57/B6 mice; control mice, 10 mg/kg or 20 mg/kg) | locomotion after injection (Control C57/B6 mice; control mice, 10 mg/kg or 20 mg/kg, 10 minutes and 20 minutes after injection, vs saline) | dopamine release in the striatum [4] | locomotion after injection (Control C57/B6 mice; control mice, 5, 10 or 20 mg/kg)
1 | CN[C@]1(c2ccccc2Cl)CCCCC1=O [S(+)-ketamine] | markedly reduced the immobility time | did not reduce the immobility time | markedly reduced the immobility time | did not reduce the immobility time | no difference in locomotion | 30 min | significant increase in locomotion | increases dopamine release in the striatum | 
2 | CN[C@@]1(c2ccccc2Cl)CCCCC1=O.Cl [R(−)-ketamine] | markedly reduced the immobility time | significantly reduced the immobility time | markedly reduced the immobility time | significantly reduced the immobility time | no difference in locomotion |  |  | not | did not affect the locomotion

Source: US11426367B2, “Methods of treating substance abuse” (Perception Neuroscience, Inc., priority 2018, dated 2022)
